{"source": "patent US11338007B2", "about": "“Combination formulation of three antiviral compounds” (priority 2016, dated 2022)", "key": {"[1]": {"assay": "Stress studies: stability of tablets made with stressed VEL SSD/VOX SSD (water, residual solvent, peroxide, reprocessing, potency; Tables 16-21)", "assay_type": "physicochemical", "settings": "for total impurities/degradation products: all conditions", "protocol": "The impact of the following stressors on the physical and chemical stability of the sofosbuvir/velpatasvir SSD/voxilaprevir SSD tablets were evaluated:\n(i) Voxilaprevir SSD and velpatasvir SSD, and sofosbuvir/velpatasvir SSD/voxilaprevir SSD tablet water content;\n(ii) Copovidone peroxide content in velpatasvir SSD and in voxilaprevir SSD (iii) Reprocessed velpatasvir SSD and voxilaprevir SSD;\n(iv) Voxilaprevir SSD and velpatasvir SSD potency (varying the ratio of velpatasvir or voxilaprevir to copovidone); and\n(v) Seeding sofosbuvir/velpatasvir SSD/voxilaprevir SSD tablets with crystalline voxilaprevir Form VIII and Form X drug substances."}, "genotype 2 or 3 HCV": {"system": "genotype 2 or 3 HCV", "assay": "SVR in HCV infected patients given sofosbuvir plus other HCV therapeutics", "assay_type": "in vivo, human", "settings": "400 mg once daily plus other HCV therapeutics; genotype 2 or 3 HCV infected patients", "protocol": "Safety and tolerability appeared similar across both dose levels. In addition, when sofosbuvir 400 mg once daily plus other HCV therapeutics were given to genotype 2 or 3 HCV infected patients, 100% SVR24 was observed."}, "HCV RNA": {"system": "HCV RNA", "assay": "Emax PK/PD modeling of sofosbuvir dose (HCV RNA change from baseline)", "assay_type": "in vivo, human", "settings": "mean major metabolite AUCtau for 400 mg dose", "protocol": "The sofosbuvir dose selected for the tablet formulation is 400 mg once daily. Support for the 400 mg sofosbuvir dose can be derived from Emax PK/PD modeling with early virological and human exposure data which also supports the selection of a 400 mg sofosbuvir dose over others tested.\nThe mean sofosbuvir major metabolite AUCtau for the 400 mg sofosbuvir dose is associated with approximately 77% of the maximal HCV RNA change from baseline achievable as determined by this model, a value which is on the cusp of the plateau of the exposure-response sigmoidal curve. In a sigmoidal Emax model, there is a relatively linear exposure-response relationship in the 20 to 80% maximal effect range. Therefore, given that sofosbuvir exposure with 200 mg tablets appears dose-proportional with single doses up to 1200 mg, doses below 400 mg are expected to yield considerable reductions in the magnitude of HCV RNA change from baseline."}, "[2]": {"assay": "BCS classification and pH dependence of solubility", "assay_type": "physicochemical"}, "[3]": {"assay": "Chemical and physical stability of Formulation G film-coated tablets Lots A and B (Tables 11A, 11B)", "assay_type": "physicochemical", "protocol": "In some embodiments, the film-coated tablets were packaged in 75 and 100 mL white HDPE bottles (Lots A and B, respectively, as described in Tables 11A, 11B) with 1 g silica gel desiccant canisters and a polyester fiber coil. The 75 and 100 mL HDPE bottles contained fourteen and twenty eight tablets, respectively. Each HDPE bottle was capped using a continuous thread, child-resistant polypropylene screw cap with an […], aluminum-faced line. The packaged tablets (14 and 28 counts) were evaluated for stability at 40° C./75% RH and 25° C./60% RH. Additionally, the 14-count bottles (without cap) were evaluated for stability under open conditions at 40° C./75% RH."}, "[4]": {"settings": "tablets from VEL SSD 6.0% residual ethanol, VOX SSD 2.1% residual acetone, open, no desiccant, 40° C./75% RH, 4 weeks"}, "[5]": {"settings": "tablets from VEL SSD 7.0% water, VOX SSD 3.2% water, Initial, time 0"}, "[6]": {"settings": "tablets from VEL SSD 7.0% water, VOX SSD 3.2% water, closed, 1 g desiccant, 25° C./60% RH, 12 weeks"}, "[7]": {"settings": "tablets from VEL SSD 7.0% water, VOX SSD 3.2% water, closed, 1 g desiccant, 40° C./75% RH, 4 weeks"}, "[8]": {"settings": "tablets from VEL SSD 7.0% water, VOX SSD 3.2% water, closed, 1 g desiccant, 40° C./75% RH, 12 weeks"}, "[9]": {"settings": "tablets from twice reprocessed VEL SSD and VOX SSD, Initial, time 0"}, "[10]": {"settings": "tablets from twice reprocessed VEL SSD and VOX SSD, closed, 1 g desiccant, 25° C./60% RH, 12 weeks"}, "[11]": {"settings": "tablets from twice reprocessed VEL SSD and VOX SSD, closed, 1 g desiccant, 40° C./75% RH, 4 weeks"}, "[12]": {"settings": "tablets from twice reprocessed VEL SSD and VOX SSD, closed, 1 g desiccant, 40° C./75% RH, 12 weeks"}, "[13]": {"settings": "tablets from twice reprocessed VEL SSD and VOX SSD, open, no desiccant, 40° C./75% RH, 4 weeks"}}, "data": [{"smiles": "CC(C)OC(=O)C(C)N[P@](=O)(OC[C@H]1O[C@@H](n2ccc(=O)[nH]c2=O)[C@](C)(F)[C@@H]1O)Oc1ccccc1", "note": "(stereo in doubt) [sofosbuvir, (S)-isopropyl 2-(((S)-(((2R,3R,4R,5R)-5-(2,4-dioxo-3,4-dihydropyrimidin-1(2H)-yl)-4-fluoro-3-hydroxy-4-methyltetrahydrofuran-2-yl)methoxy)(phenoxy)phosphoryl)amino)propanoate]", "values": [{"measurement": "LS (%)", "setting": "[1]; [4]", "result": 100.9, "unit": "%"}, {"measurement": "Total Imp./Deg. (%)", "setting": "[1]; [4]", "result": 0.0, "unit": "%"}, {"measurement": "total impurities/degradation products", "setting": "[1]; tablets from VEL SSD 7.0% and VOX SSD 3.2% water content", "result": 0.0, "unit": "%"}, {"measurement": "LS (%)", "setting": "[1]; [5]", "result": 100.5, "unit": "%"}, {"measurement": "Total Imp./Deg. (%)", "setting": "[1]; [5]", "result": 0.0, "unit": "%"}, {"measurement": "LS (%)", "setting": "[1]; [6]", "result": 99.9, "unit": "%"}, {"measurement": "Total Imp./Deg. (%)", "setting": "[1]; [6]", "result": 0.0, "unit": "%"}, {"measurement": "LS (%)", "setting": "[1]; [7]", "result": 101.6, "unit": "%"}, {"measurement": "Total Imp./Deg. (%)", "setting": "[1]; [7]", "result": 0.0, "unit": "%"}, {"measurement": "LS (%)", "setting": "[1]; [8]", "result": 100.4, "unit": "%"}, {"measurement": "Total Imp./Deg. (%)", "setting": "[1]; [8]", "result": 0.0, "unit": "%"}, {"measurement": "LS (%)", "setting": "[1]; [9]", "result": 100.7, "unit": "%"}, {"measurement": "Total Imp./Deg. (%)", "setting": "[1]; [9]", "result": 0.0, "unit": "%"}, {"measurement": "total impurities/degradation products", "setting": "[1]; tablets from twice reprocessed VEL SSD and VOX SSD", "result": 0.0, "unit": "%"}, {"measurement": "LS (%)", "setting": "[1]; [10]", "result": 99.9, "unit": "%"}, {"measurement": "Total Imp./Deg. (%)", "setting": "[1]; [10]", "result": 0.0, "unit": "%"}, {"measurement": "LS (%)", "setting": "[1]; [11]", "result": 100.3, "unit": "%"}, {"measurement": "Total Imp./Deg. (%)", "setting": "[1]; [11]", "result": 0.0, "unit": "%"}, {"measurement": "LS (%)", "setting": "[1]; [12]", "result": 99.1, "unit": "%"}, {"measurement": "Total Imp./Deg. (%)", "setting": "[1]; [12]", "result": 0.0, "unit": "%"}, {"measurement": "LS (%)", "setting": "[1]; [13]", "result": 96.4, "unit": "%"}, {"measurement": "Total Imp./Deg. (%)", "setting": "[1]; [13]", "result": 0.0, "unit": "%"}, {"measurement": "SVR24", "setting": "genotype 2 or 3 HCV", "result": 100, "unit": "%"}, {"measurement": "maximal HCV RNA change from baseline achievable (Emax model)", "setting": "HCV RNA", "result": "approximately 77%"}, {"measurement": "BCS Class", "setting": "[2]", "result": "BCS Class 3"}, {"measurement": "aqueous solubility, pH dependence", "setting": "[2]", "result": "high and pH-independent"}, {"measurement": "total impurities/degradation products", "setting": "[3]; Formulation G tablets, open conditions at 40° C./75% RH for 6 months", "result": 0.0, "unit": "%"}, {"measurement": "Total Imp./Deg.", "setting": "[3]; Lot A (14 ct), 25° C./60% RH Closed, 1 month", "result": 0.0, "unit": "%"}, {"measurement": "Total Imp./Deg.", "setting": "[3]; Lot A (14 ct), 25° C./60% RH Closed, 3 months", "result": 0.0, "unit": "%"}, {"measurement": "Total Imp./Deg.", "setting": "[3]; Lot A (14 ct), 25° C./60% RH Closed, 6 months", "result": 0.0, "unit": "%"}, {"measurement": "Total Imp./Deg.", "setting": "[3]; Lot A (14 ct), 40° C./75% RH Closed, 1 month", "result": 0.0, "unit": "%"}, {"measurement": "Total Imp./Deg.", "setting": "[3]; Lot A (14 ct), 40° C./75% RH Closed, 3 months", "result": 0.0, "unit": "%"}, {"measurement": "Total Imp./Deg.", "setting": "[3]; Lot A (14 ct), 40° C./75% RH Closed, 6 months", "result": 0.0, "unit": "%"}, {"measurement": "Total Imp./Deg.", "setting": "[3]; Lot A (14 ct), 40° C./75% RH Open, 1 month", "result": 0.0, "unit": "%"}, {"measurement": "Total Imp./Deg.", "setting": "[3]; Lot A (14 ct), 40° C./75% RH Open, 3 months", "result": 0.0, "unit": "%"}, {"measurement": "Total Imp./Deg.", "setting": "[3]; Lot A (14 ct), 40° C./75% RH Open, 6 months", "result": 0.0, "unit": "%"}, {"measurement": "Total Imp./Deg.", "setting": "[3]; Lot A (14 ct), Initial", "result": 0.0, "unit": "%"}, {"measurement": "Total Imp./Deg.", "setting": "[3]; Lot B (28 ct), 25° C./60% RH Closed, 1 month", "result": 0.0, "unit": "%"}, {"measurement": "Total Imp./Deg.", "setting": "[3]; Lot B (28 ct), 25° C./60% RH Closed, 3 months", "result": 0.0, "unit": "%"}, {"measurement": "Total Imp./Deg.", "setting": "[3]; Lot B (28 ct), 25° C./60% RH Closed, 6 months", "result": 0.0, "unit": "%"}, {"measurement": "Total Imp./Deg.", "setting": "[3]; Lot B (28 ct), 40° C./75% RH Closed, 1 month", "result": 0.0, "unit": "%"}, {"measurement": "Total Imp./Deg.", "setting": "[3]; Lot B (28 ct), 40° C./75% RH Closed, 3 months", "result": 0.0, "unit": "%"}, {"measurement": "Total Imp./Deg.", "setting": "[3]; Lot B (28 ct), 40° C./75% RH Closed, 6 months", "result": 0.0, "unit": "%"}, {"measurement": "Total Imp./Deg.", "setting": "[3]; Lot B (28 ct), Initial", "result": 0.0, "unit": "%"}, {"measurement": "total impurities/degradation products", "setting": "[3]; packaged Formulation G tablets, 40° C./75% RH and 25° C./60% RH for 6 months", "result": 0.0, "unit": "%"}]}]}
